Measured values as given in article PMC7483518, “Destabilizing single chain major histocompatibility complex class I protein for repurposed enterokinase proteolysis” (Scientific Reports, 2020).
Values joined by “and” are separate entries in the source; they are usually repeats but may differ in a detail not shown here. Identical values can stand only once. Like-named read-outs stand apart in the source and are kept apart here.

How the values were obtained:
[1] = system: HLA-A*11:01 single chain protein; format: biochemical, Human; set-up: EZ50kDa / EZ50kD (pH 6.2) / EZ50kD (pH 8) / EZ50kD (normalised: EBV1101 = 1, EBV0201 = 0) / EZ50kDa rank: unit not given beside the values; conditions: for EZ50kDa: Table 3, EGFR peptide library (n = 177, duplicated), pH 6.2, 37 °C, 14 h, enterokinase, Eq. (4);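 as to EZ50kDa: intact 50 kDa band volume scaled with positive control peptide as 1 and negative as 0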
[2] = biological target: photolabile unchained HLA-A*11:01 pMHC-I protein (Homo sapiens, UniProt P04439, A114D/D185E/E176A/F33Y/L180Q/S129P/T187R); test: ELISA with photolabile unchained pMHC-I protein and UV irradiation; format: binding
[3] = EASY MHC-I A*11:01, 2019-07-26, mean of the 2 replicates
[4] = EASY MHC-I A*11:01, 2019-08-01, mean of the 2 replicates
[5] = EASY MHC-I A*11:01, run 2019-08-06, 5min, mean of 2 replicates
[6] = EASY MHC-I A*11:01, run 2019-08-07, 5min, mean of 2 replicates
[7] = EASY MHC-I A*11:01, run 2019-08-08, 5min, mean of 2 replicates
[8] = EASY MHC-I A*11:01, gel 2019-07-17 lr1028-1036 5min, mean of 2 replicates
[9] = EASY MHC-I A*11:01, gel 2019-07-17 lr1028-1036 5min, replicate 1 (lanes 1-14)
[10] = EASY MHC-I A*11:01, gel 2019-07-17 lr1028-1036 5min, replicate 2 (lanes 15-28)

| Sequence | EASY_mean [2] | EASY_mean ([2]; […], mean, STDEV) | EZ_mean [1] | further results |
| --- | --- | --- | --- | --- |
| IKTSPKANKEI [EX1020] | – | – | – | EZ_mean [1, 3]: -0.1313; EASY_mean ([2]; ELISA signal, mean, […]): -0.02309 |
| IKTSPKANKEIL [EX1028] | -0.02595 | – | – | EZ_mean [1, 4]: -0.1371 |
| IMQLMPFG [TM1007] | – | – | – | EZ_mean [1, 5]: -0.09302; EASY_mean ([2]; ELISA signal, mean, […]): -0.02903 |
| IMQLMPFGC [TM1016] | – | -0.02516 | – | EZ_mean [1, 6]: -0.08902 |
| IMQLMPFGCL [TM1026] | – | – | – | EZ_mean [1, 7]: -0.06176; Norm_mean [1, 7]: -0.05556; EASY_mean ([2]; ELISA signal, mean, […]): -0.02435 |
| IMQLMPFGCLL [TM1037] | – | – | -0.1199 | EASY_mean ([2]; ELISA signal, mean, […]): -0.05375 |
| IMQLMPFGCLLD [TM1049] | -0.01469 | – | -0.08186 | – |
| IPVAIKTSPKA [EX1016] | – | -0.002293 | – | EZ_mean [1, 3]: -0.1024 |
| IPVAIKTSPKAN [EX1024] | -0.02211 | – | – | EZ_mean [1, 4]: -0.1301 |
| ITDFGRAKLL [LR1022] | – | -0.02159 | -0.0609 | – |
| ITDFGRAKLLG [LR1033] | -0.04357 | – | – | EZ_mean [1, 8]: -0.04472; EZ50kD (normalised: EBV1101 = 1, EBV0201 = 0) [1, 9]: -0.05531; Norm (50 kDa band adj. volume normalised: Undig_37C = 1, Dig_37C = 0) [1, 9]: -0.05765; EZ50kD (normalised: EBV1101 = 1, EBV0201 = 0) [1, 10]: -0.03414; Norm (50 kDa band adj. volume normalised: Undig_37C = 1, Dig_37C = 0) [1, 10]: -0.02949 |
| ITDFGRAKLLGA [LR1045] | -0.00307 | – | -0.0656 | – |
| ITQLMPFGS [CS1009] | -0.02581 | – | -0.06498 | – |
| ITQLMPFGSL [CS1019] | -0.007918 | – | -0.0702 | – |
| ITQLMPFGSLLD [CS1042] | -0.01907 | – | -0.03951 | – |
| KIPVAIKTSPKA [EX1023] | -0.01234 | – | – | EZ_mean [1, 4]: -0.1135 |
| KITDFGRA [LR1002] | – | -0.007222 | -0.03733 | – |
| KITDFGRAKL [LR1021] | – | -0.0154 | -0.05252 | – |
| KITDFGRAKLL [LR1032] | 0.009234 | – | – | EZ_mean [1, 8]: 0.03523; EZ50kD (normalised: EBV1101 = 1, EBV0201 = 0) [1, 9]: 0.01844; Norm (50 kDa band adj. volume normalised: Undig_37C = 1, Dig_37C = 0) [1, 9]: -0.01259; EZ50kD (normalised: EBV1101 = 1, EBV0201 = 0) [1, 10]: 0.05201; Norm (50 kDa band adj. volume normalised: Undig_37C = 1, Dig_37C = 0) [1, 10]: 0.03105; EZ50kDa [1]: 0.0352 ± 0.024 |
| KITDFGRAKLLG [LR1044] | 0.1191 | – | 0.1681 | EZ50kD (normalised: EBV1101 = 1, EBV0201 = 0) [1]: 0.1471 and 0.1891; Norm (50 kDa band adj. volume normalised: Undig_37C = 1, Dig_37C = 0) [1]: 0.1017 and 0.1364; EZ50kDa [1]: 0.2 and 0.168 ± 0.030 |

| Sequence | EASY_mean [2] | EASY_mean ([2]; […], mean, STDEV) | EZ_mean [1] | further results |
| --- | --- | --- | --- | --- |
| KTSPKANK [EX1003, EGFR exon 19 deletion-derived peptide] | 0.02773 | – | 0.03406 | EZ50kDa [1]: 0.0341 ± 0.022 |
| KTSPKANKE [EX1008] | – | -0.00166 | – | EZ_mean ([1]; EASY MHC-I A*11:01, 2019-07-25, mean of the 2 replicates): -0.03131 |
| KTSPKANKEI [EX1014] | – | -0.002118 | – | EZ_mean [1, 3]: -0.1022 |
| KTSPKANKEIL [EX1021] | – | -0.001833 | – | EZ_mean [1, 3]: -0.102 |
| KTSPKANKEILD [EX1029] | -0.02661 | – | – | EZ_mean [1, 4]: -0.1385 |
| LIMQLMPF [TM1006] | – | -0.03127 | – | EZ_mean [1, 5]: -0.09815 |
| LIMQLMPFG [TM1015] | – | -0.03975 | – | EZ_mean [1, 6]: -0.1155 |
| LIMQLMPFGC [TM1025] | – | – | – | EZ_mean [1, 7]: -0.05365; Norm_mean [1, 7]: -0.04493; EASY_mean ([2]; ELISA signal, mean, […]): -0.02724 |
| LIMQLMPFGCL [TM1036] | – | – | -0.1248 | EASY_mean ([2]; ELISA signal, mean, […]): -0.07162 |
| LIMQLMPFGCLL [TM1048] | -0.04956 | – | -0.1103 | – |
| LITQLMPFGS [CS1018] | 0.007236 | – | -0.05783 | – |
| LITQLMPFGSL [CS1029] | -0.02804 | – | -0.07478 | – |
| LMPFGSLL [CS1003] | 0.002317 | – | -0.06827 | – |
| LMPFGSLLD [CS1012, probably meant CS1032] | -0.02081 | – | -0.06046 | EZ MHC-I stability with HLA-A*11:01 single chain protein ([1]; Fig. 2f,g, EGFR peptide library): strongly stabilizing |
| LMPFGSLLDY [CS1022] | 0.006828 | – | -0.05808 | – |
| LMPFGSLLDYV [CS1033] | -0.01373 | – | -0.06309 | – |
| LTSTVQLIM [TM1009] | – | -0.03424 | – | EZ_mean [1, 5]: -0.1009 |
| LTSTVQLIMQ [TM1019] | – | -0.02206 | – | EZ_mean [1, 7]: -0.0385; Norm_mean [1, 7]: -0.02611 |
| LTSTVQLIMQL [TM1030] | – | -0.03337 | -0.07795 | – |
